Laboratory results reported in PubChem BioAssay AID179 (DTP/NCI, 2004).
“And” between values parts separate entries of the source, which are not always exact repeats. Identical values can stand only once. The source made the active and inactive calls.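 How the source made its calls: active means compounds giving half or more protection of infected cells from virus-caused growth loss, again on retest; inactive means the rest.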 *1 amine or outer side, *2 acyl side, *3 side chain or, on linkers, in order; H or OH if unused. Where a SMILES comes first, the peptide text is derived from it. Bridges are numbered along the chain shown (N, C = ends). Roman numbers before positions name the chains, in order. [ ]: non-standard residue; d: D form. Actinocin(9to1) = Cc1c2oc3c(C)ccc(C(=O)[*:1])c3nc-2c(C(=O)[*:2])c(N)c1=O; aThr = C[C@H](O)[C@H](N)C(=O)O; NMeV = CN[C@H](C(=O)O)C(C)C; Sar = CNCC(=O)O

Tested on: CEM cells HIV-1 protection, formazan growth assay
Experiment: NCI AIDS Antiviral Assay
Details: for IC50: measured here: growth of uninfected CEM cells
How it was run: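 Screen of anti-HIV-1 activity in human CEM cells using a formazan-based growth measurement at five drug concentrations. Hits with 50% or greater protection were repeated, and confirmation required reproducible complete protection.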

SMILES | EC50 [µM] | IC50 | outcome
Cc1cccc(C)c1C1(Cl)C(=O)c2ccccc2C1=O | > 200 | 13.5 µM | –
CN(C(=O)C12C3(C(=O)O)C4C5(C(=O)O)C3C1(C(=O)O)C5C42C(=O)O)C(C)(C)C (centres undefined) | > 200 | > 200 µM | –
COC(=O)c1ccccc1CC1Cc2ccc3c(c2C1=O)CCC3 (centres undefined) | > 200 | > 200 µM | –
CCOc1ccc(/C=N/[N+](C)(C)C)cc1OCC | > 200 | > 200 µM | –
CCCCOC(=O)C(=O)C(CC(C(=O)Cc1ccccc1)c1ccccc1)C(=O)C=C(C)C (centres undefined) | > 112 | > 112 µM | –
CCN1C(c2ccccc2)=CC(c2ccccc2)(C(Cl)(Cl)Cl)C=C1c1ccccc1 | > 200 | 1.78 µM | –
CCOC(=O)O/C(=C\c1ccc(OC)cc1)c1c(OC(=O)OCC)n(C(=O)OCC)c2ccccc12 | > 200 | 6.61 µM | –
O=C1OC2c3ccccc3C(=O)C2(c2ccccc2)N1c1ccccc1 (centres undefined) | > 200 | 126 µM | –
CCOC(=O)/C=C/CCCC(N1CCCC1)n1nnc2ccccc21 (centres undefined) | > 200 | 3.31 µM | –
CN1Cc2cc(O)c(O)cc2C(O)C1 (centres undefined) | > 200 | 102 µM | –
CCOC(=O)CC1NCCc2cc(OC)c(OC)c([N+](=O)[O-])c21 (centres undefined) | – | – | inactive
Cc1c2ccnc(C(N)=O)c2c(C)c2c1[nH]c1ccccc12 | – | – | inactive
COc1c(OCC(O)CN2CCCCC2)c2c(C)coc2c2ccoc12 (centres undefined) | > 631 | 35.5 µM | –
CC(CNN=C(N)N)NN=C(N)N (centres undefined) | > 200 | > 200 µM | –
CC1CC[C@H]2[C@@H]1[C@H]1[C@@H](CC[C@@]23CCc2ccccc2O3)C1(C)C (some centres undefined) | > 11.5 | > 11.5 µM | –
COc1ccc2[nH]cc([C@@H]3C4CCC(C4)[C@H]3NCc3cccc(CN[C@H]4C5CCC(C5)[C@@H]4c4c[nH]c5ccc(OC)cc45)c3)c2c1 | > 2 | 0.324 µM and 0.617 µM | –
O=C(NCCCCCN1CCC2(CCCCC2)CC1)C(c1ccccc1)C1CCCCC1 (centres undefined) | > 200 | 5.75 µM | –
COc1cc(/C=C2\CCC(C)c3c2nc(N)c(C#N)c3-c2cc(OC)c(OC)c(OC)c2)cc(OC)c1OC (centres undefined) | – | – | inactive
C1CCN(c2nsc(N3CCCCC3)n2)CC1 | – | – | inactive
COc1cccc(/C=N/[N-]C(N)=O)c1[O-].[Ni+2].[OH3+].c1ccc(-c2ccccn2)nc1 | – | – | inactive
CC#CCOC(=O)c1ccccc1OC(C)=O | > 200 | > 200 µM | –

SMILES | EC50 [µM] | IC50 | outcome
CC(CO)CCNc1ncnc2c1ncn2CCC#N (centres undefined) | > 200 | > 200 µM | –
Oc1ccc([C@H]2Oc3c(ccc(O)c3O)[C@@H](O)[C@H]2O)cc1O | > 200 | 29.5 µM | –
CCCCCCCC(=O)N1C2CC3CCC2(CS1(=O)=O)C3(C)C (centres undefined) | > 200 | 19.1 µM | –
O=C(Nc1ccc(C2=NCCN2)cc1)c1cc(C(=O)Nc2ccc(C3=NCCN3)cc2)ncn1 | 12.3 | 61.7 µM | –
CCCCCCCCCCCCCCCCOCC(COC1OC(CS(=O)(=O)O)C(O)C(O)C1O)OCCCCCCCCCCCCCCCC (centres undefined) | 100 | 123 µM | –
CC1(C)CC[C@]2(C(=O)OC3OC(CO)C(O)C(O)C3O)CCC3(C)C(=CCC4[C@@]5(C)C[C@H](O)[C@H](OC6OC(CO)C(O)C(O)C6O)[C@@](C)(C(=O)O)C5CC[C@]43C)C2C1 (some centres undefined) | > 191 | > 191 µM | –
CC1(C)CC2C(C1=O)C1(C)CCCC2(C)C1=O (centres undefined) | > 200 | > 200 µM | –
CC[N+](C)(CC)CCC[N+]12CCC(CC1)CC2 | > 631 | > 631 µM | –
CC(C)CC(NC(=O)C(Cc1ccc(O)cc1)NC(=O)CNC(=O)C(N)CCC(=O)O)C(=O)NC(Cc1c[nH]c2ccccc12)C(=O)O (centres undefined) (H-EGYLW-OH; configuration not given here) | – | – | inactive
CSc1nc(NC(=O)O)c(N(C(C)=O)C(=O)O)c(=O)n1C | > 794 | > 794 µM | –
CCSC1=CC(Cc2ccc(OC)cc2)N(C(=O)OC)C1 (centres undefined) | > 85.1 | 60.3 µM | –
Cn1ccc2[nH]c(=O)[nH]c(=S)c21 | > 200 | > 200 µM | –
CCN(CCNc1ccc(C)c2sc3ccccc3c(=O)c12)CC(C)(C)O | > 200 | 7.94 µM | –
COC(=O)c1ccccc1C1CN=NC12Cc1ccc3c(c1C2=O)CCC3 (centres undefined) | > 200 | – | –
Brc1cscc1Cc1cscc1Br | > 200 | 74.1 µM | –
Nc1cc([As](=O)(O)O)ccn1 | > 200 | > 200 µM | –
NC(=N\N=C/c1ccc(Cl)cc1Cl)/C(N)=N\N=C/c1ccc(Cl)cc1Cl | – | – | inactive
CC1(C)CC(=O)C2=C(C1)OC1=C(CC(C)(C)CC1=O)C2c1ccccc1[N+](=O)[O-] (centres undefined) | > 200 | > 200 µM | –
O=C1CN2Cc3c(sc4c3CCCC4)N=C2N1 | > 200 | 138 µM | –
CCOC(=O)C1OC12CCC(C(C)(C)C)CC2 (centres undefined) | > 200 | 191 µM | –
COC(=O)c1ccc(/C=C/c2cc(O)ccc2O)cc1 | > 20 | 3.09 µM | –

SMILES | EC50 [µM] | IC50 | outcome
CC(C)(C)OC(=O)NC1CC=CCC1NC(=O)OC(C)(C)C (centres undefined) | > 200 | > 200 µM | –
CC1Nc2c(ccc3ncccc23)C(=O)N1Nc1ccccc1 (centres undefined) | > 83.2 | 60.3 µM | –
CC(O)CN1c2ccccc2Sc2ccccc21 (centres undefined) | > 200 | > 200 µM | –
COC1C(C)OC(OC2CC(C)(O)Cc3cc4c(c(O)c32)C(=O)c2c(O)cc3c(c2C4=O)OC2OC3(C)C(O)C(N(C)C)C2O)C(OC)C1(C)OC (centres undefined) | – | – | inactive
O=C1/C(=C/c2ccc3c(c2)OCO3)SC2C=Nc3ccccc3N12 (centres undefined) | > 2.24 | > 2.24 µM | –
COc1cc2c(cc1OC)-c1cc3cc(OC)c(OC)cc3c(=O)n1CC2 | > 200 | 7.24 µM | –
O=C(/C=C/c1ccc(Cl)cc1)c1ccc(Cl)c(Cl)c1 | > 32.4 | > 32.4 µM | –
COc1cc(OC)c(C(=O)[O][Sn]([c]2ccccc2)([c]2ccccc2)[c]2ccccc2)cc1OC | > 200 | 0.0631 µM | –
CC(C)N1CN(C(C(=O)N[C@@H]2C(=O)N3C2SC(C)(C)C3C(=O)O)c2ccc(O)cc2)CSC1=S (some centres undefined) | > 479 | 79.4 µM | –
O=C(NC(=Nc1ccccc1)SCSC(=Nc1ccccc1)NC(=O)c1c(Cl)cccc1Cl)c1c(Cl)cccc1Cl | > 200 | 14.1 µM | –
N#CC[C@@H](O)COc1ccccc1 | > 200 | > 200 µM | –
NC(=O)c1cc2ccccc2[n+](Cc2ccc(F)cc2)c1 | 200 | 339 µM | –
COCN(COC)c1nc(CCC(Br)(Br)Br)nc(N(COC)COC)n1 | > 83.2 | 37.2 µM | –
CN(C)c1ccc(/C=C(\C#N)c2ccccc2)cc1 | > 5.89 | – | –
Cc1c2oc3c(C)ccc(C(=O)N[C@@H]4C(=O)N[C@H](C(C)C)C(=O)N5CCC[C@H]5C(=O)N(C)CC(=O)N(C)[C@@H](C(C)C)C(=O)O[C@H]4C)c3nc-2c(C(=O)N[C@@H]2C(=O)N[C@H](C(C)C)C(=O)N3CCC[C@H]3C(=O)N(C)CC(=O)N(C)[C@@H](C(C)C)C(=O)O[C@H]2C)c(N)c1=O (I: [aThr][dV]P[Sar][NMeV] / II: [aThr][dV]P[Sar][NMeV]; ester I:1-I:C, II:1-II:C; linker I:N-II:N via Actinocin(9to1)) | > 0.302 | 9.55e-05 µM | –
C=C(C)C(O)C(OCC)c1c(OC)ccc2ccc(=O)oc12 (centres undefined) | > 200 | > 200 µM | –
CC(C)=CCCC(C)C1=C(O)C(=O)C(C)=CC1=O (centres undefined) | > 2 | 0.589 µM | –
CNC(=S)N1CCN(C(C)=O)C1=S | > 200 | > 200 µM | –
CCCCNC(=O)Sc1ccccc1C(=O)NCCC(N)=O | 0.933 | 117 µM | –
COc1cc2c3cc1Oc1c(OC)c(OC)cc4c1C(Cc1ccc(O)c(c1)Oc1ccc(cc1)CC3N(C)CC2)N(C)CC4 (centres undefined) | – | – | inactive
COC(=O)c1ccc(OCCn2nnc(C(=O)NN)c2C(=O)NN)cc1 | > 100 | > 100 µM | –

SMILES | EC50 [µM] | IC50 | outcome
O=S(=O)(c1ccccc1)N1CCCC(c2ccccc2)CC1 (centres undefined) | – | – | inactive
COC1/C=C/OC2(C)Oc3c(C)c(O)c4c(O)c(cc(OCC(=O)N(C)CC(=O)OC(C)(C)C)c4c3C2=O)NC(=O)/C(C)=C/C=C/C(C)C(O)C(C)C(O)C(C)C(OC(C)=O)C1C (centres undefined) | > 200 | 28.2 µM | –
Cc1ccc2nnn3c(=N)nc(N)nc3c2c1 | > 79.4 | > 79.4 µM | –
C=CC1(c2ccccc2Cl)N/C(=C/OCC)CO1 (centres undefined) | > 26.9 | > 26.9 µM | –
NC(=S)C(=S)N=Cc1c(O)c2ccccc2oc1=O | > 200 | 102 µM | –
C1=NCCNCCNCCN=Cc2ccccc2OCc2cccc(n2)COc2ccccc21 | > 50.1 | 7.76 µM | –
CC(=O)NC(C)(C)C1CC=C(C)CC1 (centres undefined) | > 200 | > 200 µM | –
Nc1ncnc2nc(CO)[nH]c12 | > 158 | > 158 µM | –
CCN=c1cc2oc3cc(NCC)c(C)cc3c(-c3ccccc3C(=O)OCC)c-2cc1C | > 200 | 0.0631 µM and 0.12 µM | –
CCSc1cccc(C(=O)O)c1 | > 513 | > 513 µM | –
CCCCCCc1cc2c(O)c(C(c3ccccc3)c3c(O)c4cc(CCCCCC)c(O)cc4oc3=O)c(=O)oc2cc1O | > 200 | 5.62 µM | –
Cc1cccc(C(C)C)c1NC(=O)CC1C(=O)Nc2ccccc2S1(=O)=O (centres undefined) | > 7.08 | > 7.08 µM | –
COc1cc(C2c3cc4c(cc3C(NCC(O)CO)C3COC(=O)[C@H]23)OCO4)cc(OC)c1OC (some centres undefined) | – | – | inactive
Nc1nc(Cl)c2ncn(C3C=CC(O)CC3)c2n1 (centres undefined) | > 933 | 52.5 µM | –
OC(Cn1cncn1)(Cn1cncn1)c1ccc(Cl)cc1Cl | > 741 | 490 µM | –
Oc1ccc(Cl)cc1Sc1cc(Cl)ccc1O | > 200 | 7.41 µM | –
CN1CN(c2ccccc2)C2(CCN(CCC3COc4ccccc4O3)CC2)C1=O (centres undefined) | > 200 | 30.9 µM | –
O=[N+]([O-])c1ccc(OP(=O)(Oc2ccc([N+](=O)[O-])cc2)OP(=O)(Oc2ccc([N+](=O)[O-])cc2)Oc2ccc([N+](=O)[O-])cc2)cc1 | > 200 | 50.1 µM | –
Nc1nc(OCc2ccccc2)c2[nH]cnc2n1 | > 200 | 32.4 µM | –
CCOC(=O)/C(C#N)=C/c1[nH]c(C(=O)OCc2ccccc2)c(C)c1C | – | – | inactive
O=C(O)Cn1ccc(=O)c2c([N+](=O)[O-])cccc21 | > 200 | > 200 µM | –
